Measurements as given in US11591334B2, “Substituted pyrrolizines for the treatment of hepatitis B” (SHANGHAI LONGWOOD BIOPHARMACEUTICALS CO., LTD., priority 2017, dated 2023).
Like-named read-outs stand apart in the source and are kept apart here.

Experiments:
HBV = experiment: Determination of anti-HBV activity in HepG2.2.15 cell (Experiment 2, HBV DNA in supernatant by qPCR); assay type: cell-based; conditions: Hepatitis B virus; HepG2.2.15 cells, HBV DNA in supernatant on the eighth day, qPCR; read-out: Experiment 2 Cell experiment EC50
Protocol: Experiment 2: Determination of Anti-HBV Activity in HepG2.2.15 Cell
Compound dilution. All the compounds for in vitro anti-HBV activity assay and cytotoxicity assay were 3-fold diluted into 8 concentrations. The final concentration of the tested compound was 30 μM, the final starting concentration of reference compound GLS4 was 1 μM, and the final concentration of DMSO was 0.5%.
HepG2.2.15 cell (4×10^4 cell/well) was inoculated into 96 well plate, and cultured overnight in 37° C., 5% CO2. On the second day, fresh culture medium containing different concentrations of the compound was added into the culture wells. On the fifth day, the old culture solution in the culture well was aspirated and fresh culture medium containing different concentrations of the compound was added.
On the eighth day, the supernatant in the culture well was collected for extraction of HBV DNA, and the content of DNA in the supernatant of HepG2.2.15 HBV was detected by qPCR. After the supernatant was collected, the medium and Cell-titer Glo reagent were added into the culture well, and the chemiluminescence value of each well was measured by microplate reader.
The activity calculation formula was as follows: Y=Bottom+(Top−Bottom)/(1+10^((LogIC50−X)*Hillslope));

C150 protein = molecular target: T1, C150 protein (Hepatitis B virus genotype D subtype adw, UniProt P03147, C107A/C48A/C61A/R150C); experiment: In vitro anti-HBV nucleocapsid assembly activity test (Experiment 1, protein experiment); assay type: biochemical
T1 construct: purchased WuXi Apptec Co., Ltd
Protocol: Experiment 1: In Vitro Anti-HBV Nucleocapsid Assembly Activity Test
Main Reagents and Raw Materials:
C150 protein was expressed and purified by WuXi Apptec Co., Ltd.
BoDIPY® FL was purchased from Thermo Fisher Scientific.
Protein Fluorescent Label:
150 μL of 2% w/v skimmed milk was added into each well of 96-well plate, and incubated at room temperature for 2 hours. The skimmed milk was aspirated. The plate was washed with deionized water and dried, and stored at room temperature. C150 protein (3 mg per tube) was desalted with 5 ml Hitrap desalting column. The desalted C150 protein of each tube was added with 50 mM BoDIPY® FL Fluorescent Dye (20 μl), and incubated under 4° C. overnight in the dark after well mixed. Sephadex G-25 gel was used for filtration to remove fluorescent dyes that were not bounded onto C150. The C150 fluorescent labeling efficiency was calculated according to the following equation: [BoDIPY®FL]=A504/78,000 M^−1; [C150Bo]=(A280−[BoDIPY®FL]×1300 M^−1)/60,900 M^−1; Fluorescent Labeling Efficiency=[BoDIPY®FL]/[C150Bo];
The mother liquor of compound was diluted with DMSO to 6 mM, then diluted to 600 μM with 50 mM HEPES, and then further 3-fold diluted with 10 DMSO/50 mM HEPES to 8 concentrations.
C150Bo was diluted to 2 μM with 50 mM HEPES. 37.5 μL of C150Bo and 2.5 μL of compound at each concentration were added into a 96 well plate and well mixed, then incubated at room temperature for 15 minutes. 10 μl of 750 mM NaCl/50 mM HEPES were added into the each reaction well, and the final concentration of NaCl was 150 mM.
Into the control wells in the 0% protein group 10 μL of 50 mM HEPES was added, and the final concentration of NaCl was 0 mM.
Into the control wells in the 100% protein group 10 μL of 5 M/50 mM HEPES was added, and the final concentration of NaCl was 1 M.
The final concentration of DMSO was 0.5%, the maximum final concentration of the compound was 30 μM, and final concentration of C150Bo was 1.5 μM. The mixture was incubated at room temperature for 1 hour. Fluorescence signal was measured (excitation light was 485 nm; emission light was 535 nm).
Data Analysis % protein assembly=[1−(Sample fluorescence value−1 M NaCl fluorescence value)/(0 M NaCl fluorescence value−1 M NaCl fluorescence value)]×100.
IC50 value was calculated by prism software, and the equation was as follows: Y=Bottom+(Top−Bottom)/(1+10^((LogIC50−X)HillSlope));

[1] = Determination of cytotoxicity (Experiment 3, resazurin assay); assay type: cell-based; conditions: human; HepG2 cells, incubated for 4 days, resazurin assay; read-out: Experiment 3 Cytotoxicity CC50
Protocol: Compound dilution. All the compounds for in vitro anti-HBV activity assay and cytotoxicity assay were 3-fold diluted into 8 concentrations. The final concentration of the tested compound was 30 μM, the final starting concentration of reference compound GLS4 was 1 μM, and the final concentration of DMSO was 0.5%. Experiment 3: Determination of Cytotoxicity The cytotoxicity of the test compound was tested using HepG2 cells. The cells were incubated for 4 days in the presence of the test compound. Cell activity was assessed using the resazurin assay.

[2] = fluorescently labeled C150 (C150Bo) 1.5 μM, 150 mM NaCl, 1 hour at room temperature, read-out: Experiment 1 Protein experiment IC50

T1 sequence (P03147 1-150 C48A/C61A/C107A/R150C): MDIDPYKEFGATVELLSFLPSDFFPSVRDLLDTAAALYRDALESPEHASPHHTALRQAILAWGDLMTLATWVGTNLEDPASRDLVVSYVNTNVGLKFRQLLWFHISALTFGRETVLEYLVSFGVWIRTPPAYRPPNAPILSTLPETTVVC

C[C@@H](NS(=O)(=O)c1c(Cl)c(C(=O)Nc2ccc(F)c(F)c2)n2c1CCCC2)C(F)(F)F [Compound 40a]
EC50 (HBV): 0.1 to 100 nM
IC50 (C150 protein; [2]): < 1000 nM
CC50 at 4 days [1]: > 30000 nM

C[C@@H](NS(=O)(=O)c1c(Cl)c(C(=O)Nc2ccc(F)c(C#N)c2)n2c1CCCC2)C(F)(F)F [Compound 40b]
EC50 (HBV): 0.1 to 100 nM
IC50 (C150 protein): 1000 to 100000 nM
CC50 at 4 days [1]: > 30000 nM

C[C@@H](NS(=O)(=O)c1c(Cl)c(C(=O)Nc2ccnc(Cl)c2)n2c1CCCC2)C(F)(F)F [Compound 40c]
EC50 (HBV): 0.1 to 100 nM
IC50 (C150 protein): 1000 to 100000 nM
CC50 at 4 days [1]: > 30000 nM

CC(NS(=O)(=O)c1c(Cl)c(C(=O)Nc2cc(F)nc(C#N)c2)n2c1CCCC2)C(F)(F)F (stereo not drawn) [Compound 40d]
EC50 (HBV): 0.1 to 100 nM
IC50 (C150 protein; [2]): 1000 to 100000 nM
CC50 at 4 days [1]: > 30000 nM

Cc1c(S(=O)(=O)NC(C)C(F)(F)F)c2n(c1C(=O)Nc1ccc(F)c(F)c1)CCCC2 (stereo not drawn) [Compound 40e]
EC50 (HBV): 0.1 to 100 nM
IC50 (C150 protein; [2]): 1000 to 100000 nM
CC50 at 4 days [1]: > 30000 nM

Cc1c(S(=O)(=O)NC(C)C(F)(F)F)c2n(c1C(=O)Nc1ccc(F)c(C#N)c1)CCCC2 (stereo not drawn) [Compound 40f]
EC50 (HBV): 0.1 to 100 nM
IC50 (C150 protein; [2]): 1000 to 100000 nM
CC50 at 4 days [1]: > 30000 nM

C[C@@H](NS(=O)(=O)c1c(Cl)c(C(=O)Nc2ccc(F)c(F)c2)n2c1C=CCCC2)C(F)(F)F [Compound 50a]
EC50 (HBV): 0.1 to 100 nM
IC50 (C150 protein; [2]): 1000 to 100000 nM
CC50 at 4 days [1]: > 30000 nM

C[C@@H](NS(=O)(=O)c1c(Cl)c(C(=O)Nc2ccc(F)c(C#N)c2)n2c1C=CCCC2)C(F)(F)F [Compound 50b]
EC50 (HBV): 0.1 to 100 nM
IC50 (C150 protein): > 100000 nM
CC50 at 4 days [1]: > 30000 nM

C[C@@H](NS(=O)(=O)c1c(Cl)c(C(=O)Nc2ccc(F)c(F)c2)n2c1CCCCC2)C(F)(F)F [Compound 60a]
EC50 (HBV): 0.1 to 100 nM
IC50 (C150 protein; [2]): > 100000 nM
CC50 at 4 days [1]: > 30000 nM

C[C@@H](NS(=O)(=O)c1c(Cl)c(C(=O)Nc2ccc(F)c(C#N)c2)n2c1CCCCC2)C(F)(F)F [Compound 60b]
EC50 (HBV): 0.1 to 100 nM
IC50 (C150 protein): 1000 to 100000 nM
CC50 at 4 days [1]: > 30000 nM

CC(NS(=O)(=O)c1c2ncccc2c(C(=O)Nc2ccc(F)c(F)c2)n1C)C(F)(F)F (stereo not drawn) [Compound 70a]
EC50 (HBV): 0.1 to 100 nM
IC50 (C150 protein; [2]): > 100000 nM
CC50 at 4 days [1]: > 30000 nM

CC(NS(=O)(=O)c1c2ncccc2c(C(=O)Nc2ccc(F)c(C#N)c2)n1C)C(F)(F)F (stereo not drawn) [Compound 70b]
EC50 (HBV): 0.1 to 100 nM
IC50 (C150 protein; [2]): > 100000 nM
CC50 at 4 days [1]: > 30000 nM

C[C@@H](NS(=O)(=O)c1c2[nH]ccc2c(C(=O)Nc2ccc(F)c(F)c2)n1C)C(F)(F)F [Compound 80a]
EC50 (HBV): 100 to 1000 nM
IC50 (C150 protein; [2]): 1000 to 100000 nM
CC50 at 4 days [1]: > 30000 nM

CC(NS(=O)(=O)c1c2[nH]ccc2c(C(=O)Nc2ccc(F)c(C#N)c2)n1C)C(F)(F)F (stereo not drawn) [Compound 80b]
EC50 (HBV): 100 to 1000 nM
IC50 (C150 protein; [2]): 1000 to 100000 nM
CC50 at 4 days [1]: > 30000 nM

CC(NS(=O)(=O)c1c2[nH]ccc2c(C(=O)Nc2cc(F)nc(C#N)c2)n1C)C(F)(F)F (stereo not drawn) [Compound 80d]
EC50 (HBV): 0.1 to 100 nM
IC50 (C150 protein; [2]): 1000 to 100000 nM
CC50 at 4 days [1]: > 30000 nM

Cn1c(C(=O)Nc2cc(F)nc(C#N)c2)c2cc[nH]c2c1S(=O)(=O)NC1(C)COC1 [Compound 80f]
EC50 (HBV): 0.1 to 100 nM
IC50 (C150 protein; [2]): 1000 to 100000 nM
CC50 at 4 days [1]: > 30000 nM

C[C@@H](NS(=O)(=O)Nc1c(Cl)c(C(=O)Nc2ccc(F)c(F)c2)n2c1CCC2)C(F)(F)F [Compound 90a]
EC50 (HBV): 0.1 to 100 nM
IC50 (C150 protein; [2]): 1000 to 100000 nM
CC50 at 4 days [1]: > 30000 nM

CC(NS(=O)(=O)Nc1c(Cl)c(C(=O)Nc2ccnc(Cl)c2)n2c1CCC2)C(F)(F)F (stereo not drawn) [Compound 90b]
EC50 (HBV): 0.1 to 100 nM
IC50 (C150 protein; [2]): 1000 to 100000 nM
CC50 at 4 days [1]: > 30000 nM

CC(CO)NS(=O)(=O)Nc1c(Cl)c(C(=O)Nc2cc(F)nc(C#N)c2)n2c1CCC2 (stereo not drawn) [Compound 90f]
EC50 (HBV): 0.1 to 100 nM
IC50 (C150 protein; [2]): 1000 to 100000 nM
CC50 at 4 days [1]: > 30000 nM

Cc1c(NS(=O)(=O)NC2(C)COC2)c2n(c1C(=O)Nc1ccc(F)c(F)c1)CCC2 [Compound 90g]
EC50 (HBV): 0.1 to 100 nM
IC50 (C150 protein; [2]): 1000 to 100000 nM
CC50 at 4 days [1]: > 30000 nM

Cc1c(NS(=O)(=O)NC2(C)COC2)c2n(c1C(=O)Nc1cc(F)nc(C#N)c1)CCC2 [Compound 90h]
EC50 (HBV): 0.1 to 100 nM
IC50 (C150 protein; [2]): 1000 to 100000 nM
CC50 at 4 days [1]: > 30000 nM

CC(NC(=O)Nc1c(Cl)c(C(=O)Nc2ccnc(Cl)c2)n2c1CCC2)C(F)(F)F (stereo not drawn) [Compound 100b]
EC50 (HBV): 0.1 to 100 nM
IC50 (C150 protein): 1000 to 100000 nM
CC50 at 4 days [1]: > 30000 nM

Cc1c(NC(=O)NC(C)C(F)(F)F)c2n(c1C(=O)Nc1ccnc(Cl)c1)CCC2 (stereo not drawn) [Compound 100d]
EC50 (HBV): 0.1 to 100 nM
IC50 (C150 protein): 1000 to 100000 nM
CC50 at 4 days [1]: > 30000 nM

CC(CO)NC(=O)Nc1c(Cl)c(C(=O)Nc2cc(F)nc(C#N)c2)n2c1CCCC2 (stereo not drawn) [Compound 100p]
EC50 (HBV): 0.1 to 100 nM
IC50 (C150 protein; [2]): 1000 to 100000 nM
CC50 at 4 days [1]: > 30000 nM

CC(NC(=O)Nc1c(Cl)c(C(=O)Nc2ccnc(Cl)c2)n2c1CCCCC2)C(F)(F)F (stereo not drawn) [Compound 100q]
EC50 (HBV): 0.1 to 100 nM
IC50 (C150 protein; [2]): 1000 to 100000 nM
CC50 at 4 days [1]: > 30000 nM

Cc1c(NC(=O)NC2(C)COC2)c2n(c1C(=O)Nc1cc(F)nc(C#N)c1)CCCCC2 [Compound 100r]
EC50 (HBV): 0.1 to 100 nM
IC50 (C150 protein; [2]): 1000 to 100000 nM
CC50 at 4 days [1]: > 30000 nM
